Data reported in patent US8629143B2, “Potassium channel modulators” (AbbVie Inc., priority 2009, dated 2014).

Molecular target: T1, KCNQ 2/3 channels (HEK293 cells stably expressing human KCNQ2 and KCNQ3 subunits) (Homo sapiens, UniProt O43525+O43526)
T1 construct: expressed in transfected cells; host or cells: HEK293
Experiment: KCNQ2/3 channel activation, thallium flux FLIPR assay with BTC-AM dye
Type: cell-based
Conditions: for Emax: HEK293, maximum response relative to the response produced by 10 μM retigabine (set at 100%), read-out: Max. %; for EC50: HEK293 cells expressing human KCNQ2 and KCNQ3, thallium flux, FLIPR
Description: The following example describes the assay that can be used to identify compounds that activate KCNQ 2/3 channels.
HEK293 cells stably expressing human KCNQ2 and KCNQ3 subunits were seeded in 96-well, black-walled, clear-bottomed, poly-D-lysine coated plates (BD Biosciences, Bedford, Mass.) at a density of 1×10^5 cells per well 24 hours before the assay. On the assay day, BTC-AM dye (Invitrogen, Carlsbad, Calif.) was loaded into the cells by replacing the cell culture medium with 55 μL/well of 3 μg/mL dye in DPBS. Dye loading was allowed to proceed for 2 hours at room temperature and then cells were washed twice with 50 μL/well of assay buffer (in mM: 10 HEPES pH 7.3, 5 glucose, 140 Na-gluconate, 2.5 K-gluconate, 3.6 Ca-gluconate, 2 MgSO4, 0.1 Ouabain) to remove unloaded dye. Cells were incubated in 50 μL of assay buffer before loading onto a FLIPR system (Molecular Devices, Sunnyvale, Calif.). Various concentrations of compounds to be assayed were added to the cells in 50 μL of assay buffer and incubated for 4 minutes. The fluorescence signal was initiated by adding 100 μL of assay buffer containing 6 mM TlNO3 and 10 mM K2SO4. Fluors were excited using the 488-nm line of an argon laser and emission was filtered using a 540±30 nm bandpass filter. Fluorescent signals were recorded for 3 minutes. Sums of the responses over basal responses were plotted versus concentrations of test compounds to obtain an EC50 value. The maximum response for each test compound was determined relative to the response produced by 10 μM retigabine. The maximum response of retigabine at 10 μM was set at 100%.

Emax [%] | EC50 [nM] | Compound
126 | > 10000 | Cc1nn(NC(=O)Cc2cc(F)cc(F)c2)c(=O)c2ccccc12 [Example 38, 2-(3,5-difluorophenyl)-N-(4-methyl-1-oxophthalazin-2(1H)-yl)acetamide]
11 | > 10000 | O=C(CC1(c2ccc(Cl)cc2)CC1)Nn1nc(C(F)(F)F)c2ccccc2c1=O [Example 39, 2-[1-(4-chlorophenyl)cyclopropyl]-N-[1-oxo-4-(trifluoromethyl)phthalazin-2(1H)-yl]acetamide]
7 | > 10000 | O=C(CC1(c2ccc(Cl)cc2)CCC1)Nn1nc(C(F)(F)F)c2ccccc2c1=O [Example 40, 2-[1-(4-chlorophenyl)cyclobutyl]-N-[1-oxo-4-(trifluoromethyl)phthalazin-2(1H)-yl]acetamide]
7 | > 10000 | CN(C)c1ccc(CC(=O)Nn2nc(C(F)(F)F)c3ccccc3c2=O)cc1 [Example 47, 2-[4-(dimethylamino)phenyl]-N-[1-oxo-4-(trifluoromethyl)phthalazin-2(1H)-yl]acetamide]
77 | 1000 to 10000 | CC(C)(C)CC(=O)Nn1nc(C(F)(F)F)c2ccccc2c1=O [Example 48, 3,3-dimethyl-N-[1-oxo-4-(trifluoromethyl)phthalazin-2(1H)-yl]butanamide]
116 | > 10000 | O=C(CCc1ccccc1)Nn1nc(C(F)(F)F)c2ccccc2c1=O [Example 50, N-[1-oxo-4-(trifluoromethyl)phthalazin-2(1H)-yl]-3-phenylpropanamide]
-2 | > 10000 | O=C(CC1(c2ccccc2)CC1)Nn1nc(C(F)(F)F)c2ccccc2c1=O [Example 51, N-[1-oxo-4-(trifluoromethyl)phthalazin-2(1H)-yl]-2-(1-phenylcyclopropyl)acetamide]
84 | 1000 to 10000 | O=C(Cc1cccs1)Nn1nc(C(F)(F)F)c2ccccc2c1=O [Example 54, N-[1-oxo-4-(trifluoromethyl)phthalazin-2(1H)-yl]-2-(2-thienyl)acetamide]
85 | 1000 to 10000 | O=C(Cc1ccccc1)Nn1nc(C(F)(F)F)c2ccccc2c1=O [Example 57, N-[1-oxo-4-(trifluoromethyl)phthalazin-2(1H)-yl]-2-phenylacetamide]
214 | < 100 | CC(C)c1nn(NC(=O)CC23CC4CC(CC(F)(C4)C2)C3)c(=O)c2ccccc12 [Example 60, 2-(3-fluoroadamantan-1-yl)-N-(4-isopropyl-1-oxophthalazin-2(1H)-yl)acetamide]
26 | > 10000 | CC(C)c1nn(NC(=O)CC23CC4CC(CC(O)(C4)C2)C3)c(=O)c2ccccc12 [Example 61, 2-(3-hydroxyadamantan-1-yl)-N-(4-isopropyl-1-oxophthalazin-2(1H)-yl)acetamide]
149 | < 100 | CC(C)(C)c1nn(NC(=O)CC2CCCC2)c(=O)c2ccccc12 [Example 62, N-(4-tert-butyl-1-oxophthalazin-2(1H)-yl)-2-cyclopentylacetamide]
166 | < 100 | O=C(C[C@@H]1C[C@@H]2C=C[C@H]1C2)Nn1nc(C2CCC2)c2ccccc2c1=O [Example 67, 2-[(1S,2S,4S)-bicyclo[2.2.1]hept-5-en-2-yl]-N-(4-cyclobutyl-1-oxophthalazin-2(1H)-yl)acetamide]
138 | < 100 | O=C(Cc1cc(F)cc(F)c1)Nn1nc(C2CCC2)c2ccccc2c1=O [Example 69, N-(4-cyclobutyl-1-oxophthalazin-2(1H)-yl)-2-(3,5-difluorophenyl)acetamide]

Continued, compound first:

Compound | Emax [%] | EC50 [nM]
O=C(CC12CC3CC(CC(C3)C1)C2)Nn1nc(-c2ccccc2)c2cc(F)ccc2c1=O [Example 37, 2-(1-adamantyl)-N-(6-fluoro-1-oxo-4-phenylphthalazin-2(1H)-yl)acetamide] | 179 | < 100
CC(C)(CC(=O)Nn1nc(C(F)(F)F)c2ccccc2c1=O)c1ccc(Cl)cc1 [Example 42, 3-(4-chlorophenyl)-3-methyl-N-[1-oxo-4-(trifluoromethyl)phthalazin-2(1H)-yl]butanamide] | 103 | 100 to 500
O=C(CC1CCCC1)Nn1nc(C(F)(F)F)c2ccccc2c1=O [Example 43, 2-cyclopentyl-N-[1-oxo-4-(trifluoromethyl)phthalazin-2(1H)-yl]acetamide] | 112 | 100 to 500
O=C(Nn1nc(C(F)(F)F)c2ccccc2c1=O)C(F)(F)c1ccccc1 [Example 44, 2,2-difluoro-N-[1-oxo-4-(trifluoromethyl)phthalazin-2(1H)-yl]-2-phenylacetamide] | 35 | > 10000
O=C(CC1CCC1)Nn1nc(C(F)(F)F)c2ccccc2c1=O [Example 45, 2-cyclobutyl-N-[1-oxo-4-(trifluoromethyl)phthalazin-2(1H)-yl]acetamide] | 84 | 1000 to 10000
CS(=O)(=O)c1ccc(CC(=O)Nn2nc(C(F)(F)F)c3ccccc3c2=O)cc1 [Example 49, 2-[4-(methylsulfonyl)phenyl]-N-[1-oxo-4-(trifluoromethyl)phthalazin-2(1H)-yl]acetamide] | 3 | > 10000
CC(C)(CC(=O)Nn1nc(C(F)(F)F)c2ccccc2c1=O)c1ccccc1 [Example 52, 3-methyl-N-[1-oxo-4-(trifluoromethyl)phthalazin-2(1H)-yl]-3-phenylbutanamide] | 116 | 100 to 500
O=C(Cc1ccsc1)Nn1nc(C(F)(F)F)c2ccccc2c1=O [Example 53, N-[1-oxo-4-(trifluoromethyl)phthalazin-2(1H)-yl]-2-(3-thienyl)acetamide] | 61 | 1000 to 10000
O=C(Cc1ccc(Cl)s1)Nn1nc(C(F)(F)F)c2ccccc2c1=O [Example 55, 2-(5-chloro-2-thienyl)-N-[1-oxo-4-(trifluoromethyl)phthalazin-2(1H)-yl]acetamide] | 72 | 500 to 1000
Cc1ccc(CC(=O)Nn2nc(C(F)(F)F)c3ccccc3c2=O)s1 [Example 56, 2-(5-methyl-2-thienyl)-N-[1-oxo-4-(trifluoromethyl)phthalazin-2(1H)-yl]acetamide] | 51 | 1000 to 10000
O=C(Cc1ccc(Cl)c(F)c1)Nn1nc(C(F)(F)F)c2ccccc2c1=O [Example 59, 2-(4-chloro-3-fluorophenyl)-N-[1-oxo-4-(trifluoromethyl)phthalazin-2(1H)-yl]acetamide] | 90 | 1000 to 10000
CC(C)(C)c1nn(NC(=O)CC(C)(C)c2ccccc2)c(=O)c2ccccc12 [Example 64, N-(4-tert-butyl-1-oxophthalazin-2(1H)-yl)-3-methyl-3-phenylbutanamide] | 157 | < 100
CC(C)(C)c1nn(NC(=O)Cc2ccc(Cl)cc2)c(=O)c2ccccc12 [Example 65, N-(4-tert-butyl-1-oxophthalazin-2(1H)-yl)-2-(4-chlorophenyl)acetamide] | 151 | 100 to 500
O=C(C[C@@H]1C[C@@H]2CC[C@H]1C2)Nn1nc(C2CCC2)c2ccccc2c1=O [Example 66, 2-[(1S,2S,4R)-bicyclo[2.2.1]hept-2-yl]-N-(4-cyclobutyl-1-oxophthalazin-2(1H)-yl)acetamide] | 148 | < 100
